Data reported in paper PMC7958898 (Journal of Medicinal Chemistry, 2021).
Positions count from the first letter of the chain named.

What was measured:
[1] = target: T1, hCCR2b (Homo sapiens, UniProt P41597); assay: [3H]-CCR2-RA displacement assay, U2OS-CCR2 membranes; conditions: ratio of apparent Ki to Ki of compound 7
T1 sequence (P41597 1-360 isoform P41597-2): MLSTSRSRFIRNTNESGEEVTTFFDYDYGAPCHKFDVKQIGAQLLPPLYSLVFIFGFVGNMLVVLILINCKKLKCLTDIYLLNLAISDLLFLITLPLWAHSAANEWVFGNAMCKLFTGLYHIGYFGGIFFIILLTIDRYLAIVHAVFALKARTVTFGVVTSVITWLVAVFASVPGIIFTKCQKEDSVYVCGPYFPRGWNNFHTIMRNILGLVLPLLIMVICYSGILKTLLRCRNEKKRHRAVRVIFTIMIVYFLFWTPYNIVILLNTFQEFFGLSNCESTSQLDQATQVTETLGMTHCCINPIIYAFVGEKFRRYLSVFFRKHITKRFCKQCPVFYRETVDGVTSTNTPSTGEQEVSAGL

[2] = target: T2, CCR2 triple mutant C70S/C75S/C232S (Homo sapiens, UniProt P41597, C232S/C70S/C75S); assay: [3H]-CCR2-RA-[R] washout assay, CHO membranes, CCR2 triple mutant; conditions: 160 nM 14, four wash cycles
T2 sequence (P41597 1-360 isoform P41597-2 C70S/C75S/C232S): T1 sequence (P41597 1-360 isoform P41597-2) with C70S, C75S, C232S

[3] = Stability under radioligand binding assay conditions; type: physicochemical
[4] = target: T1, hCCR2b; assay: NanoBiT β-arrestin1 recruitment assay in live HEK293t cells; conditions: unwashed control vs [35S]GTPγS binding assay

| time compound remained intact in assay buffer ([3]; 25 μM, 50 mM Tris-HCl pH 7.4, 5 mM MgCl2, 0.1% CHAPS, room temperature, data not shown) | stability at higher concentration and temperature ([3]; 1 mM compound, 37 °C, over 4 h) | higher potency in β-arrestin recruitment than in [35S]GTPγS binding assay [4] | Compound | loss/reduction of affinity compared to compound 7 [1] | [3H]-CCR2-RA-[R] binding after washout [2] |
| --- | --- | --- | --- | --- | --- |
| – | – | – | O=C(NCCN=C=S)c1ccc(Oc2ccc(Cl)cc2NS(=O)(=O)c2ccc(Cl)c(C(F)(F)F)c2)cc1 [Compound 11, 4-(4-Chloro-2-((4-chloro-3-(trifluoromethyl)phenyl)sulfonamido)phenoxy)-N-(2-isothiocyanatoethyl)benzamide] | 5 fold | – |
| over 6 h | gradual degradation | 8 fold | N#CSCCNC(=O)c1ccc(Oc2ccc(Cl)cc2NS(=O)(=O)c2ccc(Cl)c(C(F)(F)F)c2)cc1 [Compound 14, 4-(4-Chloro-2-((4-chloro-3-(trifluoromethyl)phenyl)sulfonamido)phenoxy)-N-(2-thiocyanatoethyl)benzamide] | – | recovered to levels comparable to compound 7 |
| – | – | – | O=C(NCCNC(=O)c1ccc(S(=O)(=O)F)cc1)c1ccc(Oc2ccc(Cl)cc2NS(=O)(=O)c2ccc(Cl)c(C(F)(F)F)c2)cc1 [Compound 13, 4-((2-(4-(4-Chloro-2-((4-chloro-3-(trifluoromethyl)phenyl)sulfonamido)phenoxy)benzamido)ethyl)carbamoyl)benzenesulfonyl Fluoride] | 15 fold | – |
